Test results reported in PMC6143478, “Lipophilic activated ester prodrug approach for drug delivery to the intestinal lymphatic system” (Journal of Controlled Release, 2018).

Experiments:
Assay type in all cases: in vitro ADME
[1] = Prodrug conversion assay in postprandial rat lymph; settings: CM-rich postprandial rat lymph, ex vivo; relative to rat plasma
Experimental: The prodrugs were tested for their stability and conversion into their corresponding active drug using fasted state simulated intestinal fluid (FaSSIF) with added esterase enzyme activity (20 IU/mL), rat plasma, and postprandial rat lymph. The FaSSIF was prepared as previously described in the literature. The medium was pre-heated to 37 °C prior to the assay for 5 min. The experiment was initiated by spiking stock solutions of prodrugs to give a final concentration of 10 μM of the prodrugs in the medium. When the stability of the artificial emulsion-associated prodrugs was tested in plasma, the association of compounds with artificial emulsion was performed prior to stability experiments and the concentrations of the compounds in the associated emulsion were measured. The emulsion was then spiked to give a concentration of 10 μM of the prodrugs in plasma. The reaction mixtures were incubated at 37 °C and shaken at 200 rpm on a temperature-controlled orbital shaker (Thermo Scientific MaxQ4000, Waltham, MA, USA) for 4 h. Samples were withdrawn at pre-determined time points, and the reaction was terminated by addition of acetonitrile. The samples were then subjected to sample preparation and analysis as described below. […] Half-life of active drug release (t1/2) was calculated by the following equation: t1/2 = −0.693/k. […]

[2] = test system: human chylomicrons (CM); assay: Ex vivo association with human plasma-derived chylomicrons; settings: 1.755 μM, 37 °C, 1 h; in words, relative to parent drug
From the text: The protocol for preparation of human plasma-derived CM emulsion was approved by the Faculty of Medicine and Health Sciences Research Ethics Committee, Queens Medical Centre, Nottingham University Hospitals (BT12102015 CBS SoP). Healthy male volunteers of 19–40 years old and with body mass index of 18.5–25.0 were enrolled in the study after providing informed consent. The participants were excluded if any medication was used within one week prior to enrolment. On the morning of the study, participants received a high-fat meal (equivalent to a full English breakfast). Between 3 and 4 h following breakfast, 30 mL of blood was collected using heparinised tubes (Vacutainer® Blood Collection Tubes) and centrifuged (800 g, 10 min, 15 °C) to obtain plasma.
CM separation was performed as previously reported with minor modifications. Briefly, KBr (0.57 g) was mixed with 4 mL of plasma to yield density of 1.1 g/mL. PBS with densities of 1.006, 1.019, and 1.063 g/mL were prepared by adding appropriate amounts of KBr. These PBS of different densities were layered on top of the plasma to build density gradient layers in polyallomer ultracentrifuge tubes. The samples were then centrifuged at 268,350 g for 35 min at 15 °C using an ultracentrifuge (SORVALL® TH-641 Rotor, Thermo Fisher Scientific, UK). Following ultracentrifugation, approximately 1 mL of the upper layer containing CM was collected. TG concentration of CM emulsion was assessed using the TG enzymatic kit (Sigma Aldrich, Dorset, UK). TG concentration of the emulsion was adjusted to 100 mg/dL by diluting with PBS of 1.006 g/mL density. The CM emulsion was stored at 4 °C until the association assay (˂24 h).
The association of the compounds with artificial lipid particle emulsion and human CM was assessed using previously reported methodology with minor modifications. Briefly, 1 mL of artificial lipid particle or CM emulsions (TG concentration 100 mg/dL) was used for the association assay. The emulsion was spiked with stock solutions of tested compounds (in acetonitrile) to give a final concentration of 1.755 μM. The reaction mixtures were incubated at 37 °C for 1 h with magnetic stirring at 300 rpm. Following the incubation, density gradient ultracentrifugation was applied as described above to isolate the artificial lipid particles or CM associated with the tested compounds from the rest of the experimental medium. All experiments were conducted in quintuplicates or above.

[3] = Prodrug conversion assay in rat plasma
Experimental: The prodrugs were tested for their stability and conversion into their corresponding active drug using fasted state simulated intestinal fluid (FaSSIF) with added esterase enzyme activity (20 IU/mL), rat plasma, and postprandial rat lymph. The FaSSIF was prepared as previously described in the literature. The medium was pre-heated to 37 °C prior to the assay for 5 min. The experiment was initiated by spiking stock solutions of prodrugs to give a final concentration of 10 μM of the prodrugs in the medium. When the stability of the artificial emulsion-associated prodrugs was tested in plasma, the association of compounds with artificial emulsion was performed prior to stability experiments and the concentrations of the compounds in the associated emulsion were measured. The emulsion was then spiked to give a concentration of 10 μM of the prodrugs in plasma. The reaction mixtures were incubated at 37 °C and shaken at 200 rpm on a temperature-controlled orbital shaker (Thermo Scientific MaxQ4000, Waltham, MA, USA) for 4 h. Samples were withdrawn at pre-determined time points, and the reaction was terminated by addition of acetonitrile. The samples were then subjected to sample preparation and analysis as described below. The natural log percentage of the prodrug concentration was plotted against incubation time, and the slope (k) was obtained from the plot. Half-life of active drug release (t1/2) was calculated by the following equation: t1/2 = −0.693/k. All experiments were conducted in triplicate.

With `C=C(c1ccc(C(=O)OCC)cc1)c1cc2c(cc1C)C(C)(C)CCC2(C)C` [prodrug 2] the “half-life of active drug release in postprandial lymph” value [1] was “prolonged”, the “association with human chylomicrons (CM)” value [2] was “equally high affinity to CM” and the “conversion of emulsion-associated form of prodrug in rat plasma” value ([3]; prodrug incorporated into Intralipid lipid particles, 10 μM, relative to free form) was “delayed conversion”. The half-life at 10 μM ([3]; rat, plasma, in vitro, 37 °C, free form, read-out: half-life of active drug release in rat plasma) was 20 min.
